Marks after values point to notes of the source that are not given here.
What was measured:
[1] = test system: NO free radicals (acetylcholine induced vasodilation); assay: NO radical scavenging: inhibition of acetylcholine induced vasodilation of aorta rings; parameters: species or system Wistar rats; details: final concentration 5×10^−6 M; n = 6
Experimental: Male Wistar rats weighing 250 to 300 g were starved for 12 h before operation with free access to drinking water, and sacrificed by cervical dislocation. Thoracotomy was immediately carried out and thoracic aorta was taken out, connective tissues attached thereto were dissected, and vessels were cut into aorta rings with a length of 3 to 5 mm and placed into a perfusion bath. The bath contained 15 ml Krebs-Henseleit solution and was kept at a constant temperature of 37° C., into which 95% O2-5% CO2 gas was charged. The anchor to which the aorta rings were immobilized was connected to a tension transducer, and vasomotion curves were recorded on a dual-trace recorder at a paper speed of 1 mm/min. With the static tension adjusted to 1.0 g and 30 min of equilibration, norepinephrine at a final concentration of 10^−8 M was dosed to allow the aorta to contract for preexcitation. Norepinephrine was washed off, followed by 30 min of equilibration, and norepinephrine was added into the bath to a final concentration of 10^−8 M. When the contraction tension was steady at a plateau level, 20 μl normal saline (blank), a 20 μl solution of any one of compounds Ia to Il in normal saline (at a final concentration of 5×10^−6 M), or a 20 μl solution of NO free radical scavenger (1,3-dioxo-2-(4′-oxyacetoxyl-phenyl)-4,4,5,5-tetramethylimidazoline, TMMZ) in normal saline (at a final concentration of 5×10^−6 M) was added into the bath. When stabilized, a 20 μl acetylcholine in normal saline was added (at a final concentration of 10^−6 M). The NO scavenging ability of the drugs was expressed as a percentage of inhibition of acetylcholine induced vasodilation.

[2] = test system: rats with stroke; assay: Cerebral infarction volume after immediate treatment of stroke (TTC staining); type: in vivo, SD rats; details: 1 μmol/kg; immediate treatment; n = 10
Experimental: After the rats were awake for 24 h and assessed for their degree of damage in neural function in Experimental example 6, they were anesthesized with urethane followed by immediate decapitation and removal of the brain. Brain tissues were kept in a −20° C. refrigerator for 2 h, and coronal sections of about 2 mm were successively sliced from the prefrontal end for a total of 6 sections, and then placed into a 2% TTC solution to incubate in darkness at 37° C. for 30 min. The color change in brain sections was observed: normal brain tissues were stained red by TTC, while ischemic brain tissues, i.e., brain tissues with infracts, appeared in a white color. Photographs were taken by using a digital camera and processed with SPSS statistics software, and the volume of infarction in brain tissues and the volume of normal brain tissues in the coronal sections were calculated.

[3] = test system: rats with stroke; assay: Immediate treatment after stroke onset, neural function scores (Zealonga method, 0 no loss to 5 death); type: in vivo, SD rats; details: 1 μmol/kg, 24 h after awake
Experimental: The in vivo anti-stroke activity of the present invention was represented by neural function scores, with a lower score indicating higher activity. A 10% chloral hydrate solution (400 mg/kg) was injected intraperitoneally into SD male rats (250-300 g) for anesthesia. An open incision of 2 cm in length was longitudinally made slightly on the right to the center of the neck, and the right common carotid artery trunk, carotid external artery and carotid internal artery were dissected along the margin of the inner side of sternocleidomastoid muscles. The open incisions in the carotid internal artery and the proximal end of the common carotid artery were occluded respectively with noninvasive arterial clips. A small open incision was made across the carotid external artery, and the distal end of the carotid external artery was ligated. The arterial clip at the proximal end of the carotid external artery was released, and 10 μl blood was drawn before the proximal end of the common carotid artery was again occluded with the noninvasive arterial clip. The 10 μl blood drawn was placed in a 1 mL EP vial and kept at RT for 30 min for coagulation of blood, and then transferred into a −20° C. refrigerator for 1 h to allow coagulation. After 1 h, the blood clots were taken out, into which 1 mL saline was added, and then broken into uniform microthrombus by using a steel spatula. The microthrombus suspension was then transferred to a 1 mL injector until use. At the same time when the clip on the carotid internal artery of the rat was released, 1 mL thrombus suspension in the injector was slowly injected from the carotid external artery of the rat to its proximal end, and the suspension was injected into the brain of the rat through the carotid internal artery. Subsequently, the proximal end of the carotid external artery was ligated, the arterial clips on the carotid internal artery and the common carotid artery were released, and blood flow was restored. The jugular common vein of the rats was dissected. The vein was immediately ligated, 3 drops of penicillin was dropped at the wound site, the wound was stitched up, and the animals were allowed to come around, as the sham operation group. Or injection of urokinase in normal saline (positive control group, at a dosage of 20000 IU/kg), normal saline (blank control group, at a dosage of 3 ml/kg), TMMZ in normal saline (component control group, at a dosage of 1 μmol/kg), a thrombolytic peptide ARPAK (SEQ. ID NO. 4), GRPAK (SEQ. ID NO. 5), RPAK (SEQ. ID NO. 3) or PAK in normal saline (component control group, at a dosage of 1 μmol/kg), or one of compounds Ia-Il in normal saline (at a dosage of 0.1 μmol/kg) was carried out. 24 h after the rats were awake, the degree of damage in the neural function was evaluated by the Zealonga method. A score of 0 indicated no sign of loss in neural function, 1 indicated the front limbs on the undamaged side could not stretch out, 2 indicated walking toward the undamaged side, 3 indicated tail-chasing walking in circles toward the undamaged side, 4 indicated involuntary walking with disturbance of consciousness, and 5 indicated death.

[4] = test system: thrombus; assay: In vivo anti-thrombus experiment (arteriovenous cannula with thread); parameters: species or system SD rats; details: n = 11
Experimental: SD rats (male, 220 to 230 g) were randomly divided into groups with 11 rats in each group. The rats were fed at a resting state for 1 day and fasted overnight. […] After 30 min, the rats were anesthetized with a 20% urethane solution, and the right carotid artery and the left carotid vein were dissected. A cannula was filled with sodium heparin in normal saline, and one end thereof was inserted into the left vein, while the other end was injected with a certain amount of sodium heparin for anticoagulation with an injector and then inserted into the right artery. Blood flew from the right artery to the left vein through the polyethylene tubing, and the thread attached with thrombus was taken out after 15 min and the weight thereof was recorded. The wet thrombus weight was determined by subtracting the thread weight from the total weight.

[5] = test system: thrombus from rat arterial blood; assay: In vitro thrombolysis; parameters: species or system SD rats; details: 100 nM, 2 h at 37° C., n = 6
Experimental: SD rats (male, 350 to 400 g) were anaesthetized by intraperitoneal injection of a urethane solution at a dosage of 1200 mg/kg. The anaesthetized rats were fixed in a supine position, and the right common carotid artery was dissected, clamped at the proximal end with an arterial clip, and penetrated with a suture at the proximal and distal ends, respectively. The suture at the distal end is clipped tightly by a hemostatic clamp at the fur. Cannulation was performed at the distal end, the artery clamp was removed, and the total arterial blood was discharged into a 50 ml container previously treated with silicone oil. […] rat arterial blood was injected into a vertically fixed glass tube (20 mm in length, with an inner diameter of 4 mm and an outer diameter of 5 mm, sealed with a rubber stopper at the bottom), into which was immediately inserted a thrombus immobilization screw made of stainless steel. […] 40 min after the blood was coagulated, the rubber stopper at the bottom of the glass tube was removed, the stem of the thrombus immobilization screw was nipped by forceps, and the thrombus-wrapped thrombus immobilization screw was carefully taken out from the glass tube. The screw was then suspended and dipped in triple-distilled water to remove excessive blood, and accurately weighed after 1 h. The thrombus was suspended in 8 mL of normal saline, or a solution of compounds Ia-Il in normal saline (at a concentration of 100 nM), or a solution of ARPAK (SEQ. ID NO. 4), GRPAK (SEQ. ID NO. 5), RPAK (SEQ. ID NO. 3) or PAK in normal saline (at a concentration of 100 nM), or a solution of urokinase in normal saline (100 IU/mL), then shaked at 37° C. in a thermostatic shaker (63 r/min), and removed after 2 h and accurately weighed to determine the weight of the thrombus.

[6] = test system: thrombus; assay: In vivo thrombolysis, rat arteriovenous bypass thrombolysis model; parameters: species or system SD rats; details: 1 μmol/kg, after 1 h, n = 10
Experimental: SD rats (male, 220 to 230 g) were anaesthetized by intraperitoneal injection of a urethane solution at a dosage of 1200 mg/kg. The anaesthetized rats were fixed in a supine position, and the right common carotid artery was dissected, clamped at the proximal end with an arterial clip, and penetrated with a suture at the proximal and distal ends, respectively. The suture at the distal end is clipped tightly by a hemostatic clamp at the fur. Cannulation was performed at the distal end, the arterial clamp was removed, and about 1 ml arterial blood was discharged into a 1 ml eppendorf. 0.1 ml rat arterial blood was injected into a vertically fixed glass tube (15 mm in length, with an inner diameter of 2.5 mm and an outer diameter of 5.0 mm, sealed with a rubber stopper at the bottom), into which was immediately inserted a thrombus immobilization screw made of stainless steel. […] 15 min after the blood was coagulated, the rubber stopper at the bottom of the glass tube was removed, the stem of the thrombus immobilization screw was nipped by forceps, and the thrombus-wrapped thrombus immobilization screw was carefully taken out of the glass tube and then accurately weighed.
A bypass cannula was composed of 3 segments. The middle segment was a polyethylene tubing having a length of 60.0 mm and an inner diameter of 3.5 mm. The segments on both ends were similar polyethylene tubes having a length of 100.0 mm, an inner diameter of 1.0 mm and an outer diameter of 2.0 mm, one end of which was pulled to form a tip, with an outer diameter of 1.0 mm, that could be inserted into the rat carotid artery or vein, and the other end of which was sheathed by a polyethylene tube having a length of 7.0 mm and an outer diameter of 3.5 mm (thickened in order to be inserted into the polyethylene tubing of the middle segment). The inner wall of the 3-segment cannula was entirely silylated (with 1% silicone oil in ethyl ether). The thrombus-wrapped thrombus immobilization screw was placed into the polyethylene tubing of the middle segment, and both ends of the tubing sheathed the thickened ends of the two polyethylene tubes. The cannula was filled with a heparin solution in normal saline (50 IU/kg) through the tip end by using an injector and was ready for use. The trachea of the anaesthetized rat was then dissected and tracheal cannulation was performed. The left external carotid vein of the rat was dissected, and penetrated with a suture at the proximal and distal ends, respectively. An uneven open incision was careful made on the exposed left external carotid vein, and the tip of the bypass cannula prepared as described above was inserted into the proximal end of the open incision in the left external carotid vein, away from the stem of the thrombus immobilization screw in the middle segment of the bypass cannula (which accommodated the accurately weighed thrombus immobilization screw). A precise amount of heparin in saline (50 IU/kg) was injected through the tip at the other end by using an injector. At this moment, without removing the injector from the ethylene tube, the tubing between the injector and the polyethylene tube was clamped with forceps. The blood flow was stopped by clamping the proximal end of the right common carotid artery with an arterial clip, and an uneven open incision was cut carefully across the common carotid artery near the clip. The injector was pulled out of the tip of the polyethylene tube, and the tip of the polyethylene tube was then inserted into the proximal end of the artery open incision. Both ends of the bypass cannula were fixed to the artery or vein with #4 sutures. […]

Molecule | Percentage of infarction volume (Mean ± SD %) [2] | Weight reduction in thrombus (Mean ± SD mg) [5] | Weight reduction in thrombus (Mean ± SD mg) [6] | Wet weight of thrombus (Mean ± SD mg) ([4]; 10 μmol/kg by gavage) | also measured
CC1(C)N([O])C(c2ccc(OCC(=O)O)cc2)=[N+]([O-])C1(C)C [TMMZ, 1,3-dioxo-2-(4′-oxyacetoxy-phenyl)-4,4,5,5-tetramethylimidazoline, reference compound] | 22.96 ± 2.43 ^a % |  |  |  | Percentage of inhibition (Mean ± SD %) of vasodilatation induced by acetylcholine [1]: 15.47%; Neural function scores (Mean ± SD) ([3]; n = 10): 2.83 ± 0.75 ^a
CC(=O)Oc1ccccc1C(=O)O [aspirin, reference compound] |  |  |  |  | Wet weight of thrombus (Mean ± SD mg) ([4]; aspirin 33 mg/kg by gavage): 12.85 ± 2.49 ^a mg
Ala-Arg-Pro-Ala-Lys (ARPAK) [ARPAK (SEQ. ID NO. 4), thrombolytic peptide, component control, reference compound] | 22.00 ± 2.20 ^a % | 26.35 ± 3.10 mg | 15.20 ± 2.55 mg |  | 
Arg-Gly-Asp-Phe (RGDF) [RGDF (SEQ. ID NO. 13), targeting peptide, reference compound] |  |  |  | 19.55 ± 2.21 mg | 
Arg-Gly-Asp-Ser (RGDS) [RGDS (SEQ. ID NO. 11), targeting peptide, reference compound] |  |  |  | 20.02 ± 2.35 mg | 
Arg-Gly-Asp-Val (RGDV) [RGDV (SEQ. ID NO. 12), targeting peptide, reference compound] |  |  |  | 21.26 ± 2.07 mg | 
Arg-Pro-Ala-Lys (RPAK) [RPAK (SEQ. ID NO. 3), thrombolytic peptide, component control, reference compound] | 22.11 ± 2.25 ^a % | 26.01 ± 3.11 mg | 15.67 ± 2.61 mg |  | Neural function scores (Mean ± SD) ([3]; n = 10): did not exhibit anti-stroke activity; Neural function scores (Mean ± SD) ([3]; n = 10, listed as RPAKI (SEQ. ID NO. 3)): 2.38 ± 0.97 ^a
Gly-Arg-Pro-Ala-Lys (GRPAK) [GRPAK (SEQ. ID NO. 5), thrombolytic peptide, component control, reference compound] | 21.77 ± 2.46 ^a % | 15.47 ± 2.61 mg | 15.47 ± 2.61 mg |  | 
Pro-Ala-Lys [PAK, reference compound] | 22.07 ± 2.40 ^a % | 26.67 ± 3.20 mg | 15.00 ± 2.61 mg |  | 

From US10806798B2, “Compound with effects of thrombolysis, free radical scavenging and thrombus-targeting” (Shanghai Lumosa Therapeutics Co., Ltd., priority 2012, dated 2020)
